For series [1], the target named is T1, recombinant human JAK1 kinase domain protein (Residues 854-1154) (Homo sapiens, UniProt P23458).
T1 construct: human JAK1 kinase domain protein (Residues 854-1154); purchased Proteros Biostructures GmbH (Martinsried, Germany); host or cells: insect cells
Kind of series: JAK1 biochemical assay (microfluidic mobility shift, peptide phosphorylation). Particulars: 25 μM ATP, 1 nM total JAK1; read-out: Enzyme JAK1 Ki. The source says:
JAK1 and JAK2 Biochemical Assays

Series [2] is described as follows: Mouse lung tissue binding (equilibrium dialysis, RED). The series is classed as in vitro ADME. Conditions: for Lung tissue binding, %: Table 5, sulfone-sulfide analog pairs; for Mouse LTB %: mouse lung tissue binding, % bound (Table 3). The gist of the method: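 Equilibrium dialysis of mouse lung homogenate against buffer at 37° C. Method (a) used 1 μM compound, pH 7.4 homogenate and 6 h dialysis. Method (b) used 5 μM compound in 1:9 homogenate (0.05 M potassium phosphate pH 7.4) and 4 h dialysis, with fu corrected for dilution. Both were run in triplicate with LC-MS/MS quantification.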
(In equilibrium dialysis free small molecules cross a membrane that holds back macromolecules.)

Series [3] is described as follows: Cell cytotoxicity assay A549 (CellTiter-Glo, 72 hours). The series is classed as cell-based. Particulars: human, A549 cells, Table 3; 72 hours, top concentration of 50 μM; read-out: Cytotox A549 EC50. The gist of the method:
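A549 cells were plated overnight, then exposed for 72 h at 37 °C to a 10-point compound titration (top 50 μM, 0.5% DMSO final). Viability was read as CellTiter-Glo luminescence after 20 min at room temperature.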
A general note: In ATP-based viability assays light output follows the ATP content of the culture.

T1 sequence (P23458 854-1154): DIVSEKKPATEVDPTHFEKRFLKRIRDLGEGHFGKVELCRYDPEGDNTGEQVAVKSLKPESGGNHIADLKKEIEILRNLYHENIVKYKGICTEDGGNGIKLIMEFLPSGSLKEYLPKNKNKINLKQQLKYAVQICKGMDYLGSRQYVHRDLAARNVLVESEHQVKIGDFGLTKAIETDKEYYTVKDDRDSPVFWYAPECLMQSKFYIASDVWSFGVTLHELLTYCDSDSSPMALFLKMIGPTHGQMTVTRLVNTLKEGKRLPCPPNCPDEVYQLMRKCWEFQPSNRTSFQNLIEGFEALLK

One may read the Ki as the dissociation constant of the complex between target and ligand, obtained from inhibition or displacement. As a reminder, the EC50 is the concentration that produces a half-maximal response. As for `CS(=O)(=O)c1ccc(OC(F)F)c(-c2nn(CC#N)cc2NC(=O)c2cnn3cccnc23)c1` [Example 28, N-[1-(cyanomethyl)-3-[2-(difluoromethoxy)-5-methylsulfonyl-phenyl]pyrazol-4-yl]pyrazolo[1,5-a]pyrimidine-3-carboxamide], the Ki in series [1] is 0.24 nM. In series [2], the “Lung tissue binding, %” value stood at 70.8% and the “Mouse LTB %” value was determined as 70.8%. For the same compound, in series [3], the half-maximal effective concentration (EC50) at 72 h was no less than 50000 nM.

In the case of `CN(C)CCS(=O)(=O)c1ccc(OC(F)F)c(-c2nn(C)cc2NC(=O)c2cnn3cccnc23)c1` [Example 7, N-[3-[2-(difluoromethoxy)-5-[2-(dimethylamino)ethylsulfonyl]phenyl]-1-methyl-pyrazol-4-yl]pyrazolo[1,5-a]pyrimidine-3-carboxamide], in series [1], the Ki was 0.88 nM. The “Mouse LTB %” value in series [2] is 78.8%. Further, the EC50 at 72 h in series [3] was found to be 4100 nM.

Take `COCCS(=O)(=O)c1ccc(OC(F)F)c(-c2nn(C)cc2NC(=O)c2cnn3cccnc23)c1` [Example 14, N-[3-[2-(difluoromethoxy)-5-(2-methoxyethylsulfonyl)phenyl]-1-methyl-pyrazol-4-yl]pyrazolo[1,5-a]pyrimidine-3-carboxamide]: in series [1], the Ki is 0.49 nM. Besides, in series [2], the “Mouse LTB %” value came out at 80.1%. The EC50 at 72 h in series [3] is no less than 50000 nM.

Consider `C[C@@H](O)CS(=O)(=O)c1ccc(OC(F)F)c(-c2nn(C)cc2NC(=O)c2cnn3cccnc23)c1` (stereo in doubt) [Example 25, N-[3-[2-(difluoromethoxy)-5-[rac-(2R)-2-hydroxypropyl]sulfonyl-phenyl]-1-methyl-pyrazol-4-yl]pyrazolo[1,5-a]pyrimidine-3-carboxamide], for which the inhibition constant (Ki) in series [1] was 0.48 nM. For the same compound, in series [2], the “Mouse LTB %” value amounted to 85%. Also, in series [3], the EC50 at 72 h was no less than 50000 nM.

Consider `Cn1cc(S(=O)(=O)c2ccc(OC(F)F)c(-c3nn(C)cc3NC(=O)c3cnn4cccnc34)c2)cn1` [Example 35, N-[3-[2-(difluoromethoxy)-5-(1-methylpyrazol-4-yl)sulfonyl-phenyl]-1-methyl-pyrazol-4-yl]pyrazolo[1,5-a]pyrimidine-3-carboxamide], for which the Ki in series [1] worked out at 0.3 nM. Moreover, in series [2], the “Lung tissue binding, %” value was found to be 86.2% and the “Mouse LTB %” value was 86.2%. Further, the EC50 at 72 h in series [3] worked out at 22000 nM.

(Values after US11453671B2, “Pyrazolopyrimidine inhibitors of JAK kinases and uses thereof” (Genentech, Inc., priority 2020, dated 2022).)
